Measurements as given in patent US8937068B2, “Pyridopyrazine derivatives and their use” (Zentaris GmbH, priority 2005, dated 2015).

Tests used:
Erk2 = Erk2 (Homo sapiens, UniProt P28482); experiment: Cell-free kinase assay (ALPHA technology), Erk2; assay type: biochemical; conditions: 10 μM ATP
Protocol: The inhibitory effect of the compounds according to the invention was tested on various serine/threonine, tyrosine and lipid kinases in enzymatic assays. […] The commercial kinase proteins (Proqinase, Upstate) were used as recombinant fusion proteins with GST (glutathion-S-transferase) or His-Tag. Depending on the type of substrate, the various kinase reactions were quantified by means of suitable ALPHA™ beads (Perkin-Elmer). The substance testing is described in detail hereinafter for the Erk assay. […] a) MAPK-ALPHAs (e.g. […] The kinase reaction was then stopped by adding ALPHA bead mixes (10 μg/ml, #6760603/Perkin-Elmer) pre-incubated with 1 nM GST:Grp1 fusion protein (Upstate) and 15 nM biotinylated PIP3 (#C-39B6/Echelon) in 50 mM Hepes, 50 mM NaCl, 50 mM EDTA and 0.1% BSA and left to stand overnight. The fluorescence was detected the following morning in a Fusion™^aα-system (Perkin-Elmer). […] Eight determinations were made for each control and two for the substance samples. […] The IC50 values were determined using GraphPadPrism.

PI3Kalpha = PI3Kalpha (Homo sapiens (Human), UniProt P42336); experiment: Cell-free kinase assay (ALPHA technology), PI3Kalpha; assay type: biochemical; conditions: 100 μM ATP
Protocol: (§1) The inhibitory effect of the compounds according to the invention was tested on various serine/threonine, tyrosine and lipid kinases in enzymatic assays. Recombinant human kinases such as, for example, Erk2, PI3Kalpha, -beta, -gamma, -delta, p38alpha, p38gamma, Jnk1, Jnk2 and others were used in this case, partly as full-length kinases, partly as shortened fragments, but at least consisting of the functional kinase domains. The commercial kinase proteins (Proqinase, Upstate) were used as recombinant fusion proteins with GST (glutathion-S-transferase) or His-Tag. Depending on the type of substrate, the various kinase reactions were quantified by means of suitable ALPHA™ beads (Perkin-Elmer).
(§2) The substance testing is described in detail hereinafter for the Erk assay.
(§3) a) MAPK-ALPHAs (e.g. Erk2): the test substance, 0.625 ng Erk2 (#14-173, Upstate), 10 μM ATP and 15 nM biotinylated MBP (myelin basic protein) substrate were incubated on a 384-well Optiplate (Perkin-Elmer) in a volume of 15 μl for 1 h in 25 mM Tris, 10 mM MgCl2, 0.1% Tween-20, 100 μM NaVO4, 2 mM DTT at pH 7.5. The kinase reaction was then stopped by adding 10 μl of the ALPHA bead mixes (10 μg/ml, #6760617/Perkin-Elmer) pre-incubated with anti-phospho MBP antibody (320 pM, #05-429/Upstate) in 25 mM Tris, 200 mM NaCl, 110 nM EDTA and 0.3% BSA and left to stand overnight. b) PI3K-ALPHAs (e.g. PI3Kalpha): the test substance, 1 ng PI3Kalpha (#14-602, Upstate), 100 μM ATP and 20 μM PIP2 substrate (#P4508, Echelon) were incubated on a 384-well Optiplate (Perkin-Elmer) for 1 h in 50 mM Hepes, 50 mM NaCl, 5 mM MgCl2, 0.05% Chaps, 5 mM DTT at pH 7.4. The kinase reaction was then stopped by adding ALPHA bead mixes (10 μg/ml, #6760603/Perkin-Elmer) pre-incubated with 1 nM GST:Grp1 fusion protein (Upstate) and 15 nM biotinylated PIP3 (#C-39B6/Echelon) in 50 mM Hepes, 50 mM NaCl, 50 mM EDTA and 0.1% BSA and left to stand overnight.
(§4) The fluorescence was detected the following morning in a Fusion™^aα-system (Perkin-Elmer).
(§5) The %-inhibition values per substance concentration were calculated by means of the following formula from the raw data determined in the Fusion™ ? :
(§6) Eight determinations were made for each control and two for the substance samples. The 0% control either contains no ATP or no substrate, the 100% control (fully active kinase) contains no test substance. The IC50 values were determined using GraphPadPrism.

p38alpha = p38alpha (Homo sapiens (Human), UniProt Q16539); experiment: Cell-free kinase assay (ALPHA technology), p38alpha; assay type: biochemical; conditions: 10 μM ATP
Protocol: as §1, §2, §3, §4, §5, §6

Jnk1 + Jnk2 = experiment: Cell-free kinase assay (ALPHA technology), Jnk1 + Jnk2; assay type: biochemical, human; conditions: 10 μM ATP
Protocol: as §1, §2, §3, §4, §5, §6

Sequence of p38alpha (Q16539 whole entry): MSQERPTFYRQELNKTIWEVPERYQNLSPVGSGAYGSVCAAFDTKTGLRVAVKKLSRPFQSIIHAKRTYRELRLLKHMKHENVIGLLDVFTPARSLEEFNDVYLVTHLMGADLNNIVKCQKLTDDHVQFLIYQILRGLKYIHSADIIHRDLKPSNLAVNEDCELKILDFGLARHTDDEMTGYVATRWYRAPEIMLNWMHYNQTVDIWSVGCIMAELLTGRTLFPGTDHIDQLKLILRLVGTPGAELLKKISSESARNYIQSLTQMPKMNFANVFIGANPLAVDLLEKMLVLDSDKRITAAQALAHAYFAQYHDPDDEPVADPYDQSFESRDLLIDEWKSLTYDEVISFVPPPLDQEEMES
Sequence of Erk2 (P28482 2-360 limits assumed): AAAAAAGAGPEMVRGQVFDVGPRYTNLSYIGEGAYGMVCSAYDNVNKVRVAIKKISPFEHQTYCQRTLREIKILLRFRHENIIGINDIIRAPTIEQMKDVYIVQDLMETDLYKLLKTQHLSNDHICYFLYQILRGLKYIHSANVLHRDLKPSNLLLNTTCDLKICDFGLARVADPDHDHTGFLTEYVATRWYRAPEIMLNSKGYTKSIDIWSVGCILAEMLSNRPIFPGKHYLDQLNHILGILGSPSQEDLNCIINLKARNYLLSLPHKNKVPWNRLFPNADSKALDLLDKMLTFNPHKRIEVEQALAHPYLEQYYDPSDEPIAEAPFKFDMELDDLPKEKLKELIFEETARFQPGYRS
Sequence of PI3Kalpha (P42336 whole entry, the tested form may be a part): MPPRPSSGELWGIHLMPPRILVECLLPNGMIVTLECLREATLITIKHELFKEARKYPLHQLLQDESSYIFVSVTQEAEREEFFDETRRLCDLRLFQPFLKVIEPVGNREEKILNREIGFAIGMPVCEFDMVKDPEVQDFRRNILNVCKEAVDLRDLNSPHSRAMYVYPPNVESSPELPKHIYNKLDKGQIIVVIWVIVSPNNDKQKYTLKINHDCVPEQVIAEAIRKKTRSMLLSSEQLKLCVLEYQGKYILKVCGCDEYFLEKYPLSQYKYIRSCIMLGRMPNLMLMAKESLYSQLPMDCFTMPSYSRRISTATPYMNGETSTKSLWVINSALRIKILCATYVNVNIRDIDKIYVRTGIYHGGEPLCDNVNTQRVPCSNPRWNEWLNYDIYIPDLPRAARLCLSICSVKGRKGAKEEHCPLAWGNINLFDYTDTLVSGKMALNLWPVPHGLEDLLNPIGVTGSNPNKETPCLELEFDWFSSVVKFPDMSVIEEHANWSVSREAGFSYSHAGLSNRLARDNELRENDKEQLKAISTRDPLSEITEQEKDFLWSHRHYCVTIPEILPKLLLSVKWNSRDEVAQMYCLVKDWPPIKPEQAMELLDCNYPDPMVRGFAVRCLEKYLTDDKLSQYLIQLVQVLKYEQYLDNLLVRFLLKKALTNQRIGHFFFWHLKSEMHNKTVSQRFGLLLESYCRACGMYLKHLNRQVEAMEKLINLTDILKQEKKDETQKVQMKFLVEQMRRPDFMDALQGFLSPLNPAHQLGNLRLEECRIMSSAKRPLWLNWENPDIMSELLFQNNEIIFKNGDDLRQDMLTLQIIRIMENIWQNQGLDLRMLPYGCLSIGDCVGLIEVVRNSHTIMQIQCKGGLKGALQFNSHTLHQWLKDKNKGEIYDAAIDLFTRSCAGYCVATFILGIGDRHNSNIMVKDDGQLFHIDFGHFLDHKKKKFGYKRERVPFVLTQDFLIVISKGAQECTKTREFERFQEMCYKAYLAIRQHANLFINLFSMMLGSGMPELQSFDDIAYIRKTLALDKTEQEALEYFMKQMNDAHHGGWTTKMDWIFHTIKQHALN
Sequence of PI3Kalpha (P27986 whole entry partner, the tested form may be a part): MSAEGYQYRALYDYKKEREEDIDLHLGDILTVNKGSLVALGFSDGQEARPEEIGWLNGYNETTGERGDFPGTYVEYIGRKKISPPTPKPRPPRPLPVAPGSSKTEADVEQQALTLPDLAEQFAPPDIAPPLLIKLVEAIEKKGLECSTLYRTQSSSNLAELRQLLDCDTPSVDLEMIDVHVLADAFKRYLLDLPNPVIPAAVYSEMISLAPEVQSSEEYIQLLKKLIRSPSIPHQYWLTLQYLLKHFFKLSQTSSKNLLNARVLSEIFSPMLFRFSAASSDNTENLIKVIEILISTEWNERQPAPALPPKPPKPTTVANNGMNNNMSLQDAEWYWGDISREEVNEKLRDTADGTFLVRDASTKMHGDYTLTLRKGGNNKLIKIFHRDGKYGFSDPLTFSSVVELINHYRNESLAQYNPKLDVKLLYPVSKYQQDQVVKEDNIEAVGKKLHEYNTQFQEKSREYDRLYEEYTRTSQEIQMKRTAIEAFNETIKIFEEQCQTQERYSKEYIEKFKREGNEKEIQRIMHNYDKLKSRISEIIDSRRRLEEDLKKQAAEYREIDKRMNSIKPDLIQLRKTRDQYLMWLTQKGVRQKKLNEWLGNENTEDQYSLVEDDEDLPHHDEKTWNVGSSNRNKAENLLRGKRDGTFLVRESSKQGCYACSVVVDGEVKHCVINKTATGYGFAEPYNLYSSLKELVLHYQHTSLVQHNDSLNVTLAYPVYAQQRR

Compound | IC50 (Erk2) [µM] | IC50 (PI3Kalpha) [µM] | IC50 (p38alpha) [µM] | IC50 (Jnk1 + Jnk2) [µM]
CCNC(=O)Nc1ccc2ncc(-c3cccc(C(N)=O)c3)nc2n1 [Compound 155, 3-[6-(3-Ethyl-ureido)-pyrido[2,3-b]-pyrazin-3-yl]-benzamide] | > 100 | 5 | > 100 | 7.8
CCNC(=O)Nc1ccc2ncc(Nc3ccc(OC)c(OC)c3)nc2n1 [Compound 187, 1-[3-(3,4-Dimethoxy-phenylamino)-pyrido[2,3-b]pyrazin-6-yl]-3-ethyl-urea] | 16.6 | 0.712 | > 31.6 | > 100
CCNC(=O)Nc1ccc2ncc(-c3ccc(Cl)cc3OC)nc2n1 [Compound 171, 1-[3-(4-Chloro-2-methoxy-phenyl)-pyrido[2,3-b]pyrazin-6-yl]-3-ethyl-urea] | 0.084 | 3 | > 100 | 1.4
CCNC(=O)Nc1ccc2ncc(-c3cccc(O)c3)nc2n1 [Compound 151, 1-Ethyl-3-[3-(3-hydroxy-phenyl)-pyrido[2,3-b]pyrazin-6-yl]-urea] | 0.104 | 1.5 | > 100 | 2.9
CCNC(=O)Nc1ccc2ncc(Nc3ccc(C#N)cc3)nc2n1 [Compound 192, 1-[3-(4-Cyano-phenylamino)-pyrido-[2,3-b]pyrazin-6-yl]-3-ethyl-urea] | 31.6 | 0.422 | > 100 | 1.8
CCNC(=O)Nc1ccc2ncc(Nc3ccc(C)cn3)nc2n1 [Compound 165, 1-Ethyl-3-[3-(5-methyl-pyridin-2-yl-amino)-pyrido[2,3-b]pyrazin-6-yl]-urea] | 19.4 | 1.2 | > 100 | 27.1
CCNC(=O)Nc1ccc2ncc(Nc3ccnc(Cl)c3)nc2n1 [Compound 184, 1-[3-(2-Chloro-pyridin-4-ylamino)-pyrido[2,3-b]pyrazin-6-yl]-3-ethyl-urea] | > 100 | 0.133 | > 100 | 6.3
CCNC(=O)Nc1ccc2ncc(-c3ccc(C#N)s3)nc2n1 [Compound 174, 1-[3-(5-Cyano-thiophen-2-yl)-pyrido[2,3-b]pyrazin-6-yl]-3-ethyl-urea] | 4.9 | 3 | > 31.6 | 4.6
CCNC(=O)Nc1ccc2ncc(Nc3ccn(C)n3)nc2n1 [Compound 166, 1-Ethyl-3-[3-(1-methyl-1H-pyrazol-3-ylamino)-pyrido[2,3-b]pyrazin-6-yl]-urea] | 13.7 | 1.3 | > 100 | 21.9
CCNC(=O)Nc1ccc2ncc(Nc3ccc(C)c(O)c3)nc2n1 [Compound 188, 1-Ethyl-3-[3-(3-hydroxy-4-methyl-phenylamino)-pyrido[2,3-b]pyrazin-6-yl]-urea] | > 100 | 2.8 | > 100 | > 31.6
CCNC(=O)Nc1ccc2ncc(Nc3cnccn3)nc2n1 [Compound 181, 1-Ethyl-3-[3-(pyrazin-2-ylamino)-pyrido[2,3-b]pyrazin-6-yl]-urea] | 1.7 | 0.739 | > 100 | 4.3
CCNC(=O)Nc1ccc2ncc(Nc3cccnc3)nc2n1 [Compound 161, 1-Ethyl-3-[3-(pyridin-3-ylamino)-pyrido-[2,3-b]pyrazin-6-yl]-urea] | > 100 | 1.1 | > 100 | > 100
CCNC(=O)Nc1ccc2ncc(Nc3ccc(CC)cc3)nc2n1 [Compound 162, 1-Ethyl-3-[3-(4-ethyl-phenylamino)-pyrido[2,3-b]pyrazin-6-yl]-urea] | > 100 | 0.19 | > 100 | > 31.6
CCNC(=O)Nc1ccc2ncc(Nc3ccc(OC)nc3)nc2n1 [Compound 190, 1-Ethyl-3-[3-(6-methoxy-pyridin-3-ylamino)-pyrido[2,3-b]pyrazin-6-yl]-urea] | > 100 | 0.271 | > 100 | 31
CCNC(=O)Nc1ccc2ncc(-c3ccc(OCCCN4CCOCC4)cc3)nc2n1 [Compound 148, 1-Ethyl-3-{3-[4-(3-morpholin-4-yl-propoxy)-phenyl]-pyrido[2,3-b]pyrazin-6-yl}-urea] | 1.8 | 1.4 | > 100 | 13.7
CCNC(=O)Nc1ccc2ncc(Nc3ccc(OC)c(Cl)c3)nc2n1 [Compound 177, 1-[3-(3-Chloro-4-methoxy-phenylamino)-pyrido[2,3-b]pyrazin-6-yl]-3-ethyl-urea] | > 31.6 | 0.295 | > 100 | 3.9
CCNC(=O)Nc1ccc2ncc(Nc3ccc4ccccc4c3)nc2n1 [Compound 178, 1-Ethyl-3-[3-(naphthalin-2-ylamino)-pyrido[2,3-b]pyrazin-6-yl]-urea] | > 100 | 0.164 | > 31.6 | 2.3
CCNC(=O)Nc1ccc2ncc(Nc3cc(C(=O)O)cc(C(F)(F)F)c3)nc2n1 [Compound 189, 3-[6-(3-Ethyl-ureido)-pyrido[2,3-b]-pyrazin-3-ylamino]-5-trifluoromethyl-benzoic acid] | 20.3 | 0.237 | > 100 | 6.2
1-[3-(3,5-Dichloro-4-hydroxy-phenyl)-pyrido[2,3-b]pyrazin-6-yl]-3-ethyl-urea [Compound 186] | 0.223 | 3.8 | > 100 | 2.5
CCNC(=O)Nc1ccc2ncc(-c3c(C)n[nH]c3C)nc2n1 [Compound 172, 1-[3-(3,5-Dimethyl-1H-pyrazol-4-yl)-pyrido[2,3-b]pyrazin-6-yl]-3-ethyl-urea] | 0.41 | 4 | > 100 | 4
CCNC(=O)Nc1ccc2ncc(-c3cccc(C(=O)O)c3)nc2n1 [Compound 152, 3-[6-(3-Ethyl-ureido)-pyrido[2,3-b]pyrazin-3-yl]-benzoic acid] | 1.9 | 5.3 | > 100 | 12.1
CCNC(=O)Nc1ccc2ncc(Nc3ccc(C)c(OC)c3)nc2n1 [Compound 163, 1-Ethyl-3-[3-(3-methoxy-4-methyl-phenylamino)-pyrido[2,3-b]pyrazin-6-yl]-urea] | 26.9 | 0.096 | > 100 | > 31.6
CCNC(=O)Nc1ccc2ncc(-c3ccc(N)cc3)nc2n1 [Compound 82, 1-[3-(4-Amino-phenyl)-pyrido[2,3-b]pyrazin-6-yl]-3-ethyl-urea] | 0.944 | 6.4 | > 31.6 | 1.1
CCNC(=O)Nc1ccc2ncc(Nc3cccc(OC(C)C)c3)nc2n1 [Compound 182, 1-Ethyl-3-[3-(3-isopropoxy-phenylamino)-pyrido[2,3-b]pyrazin-6-yl]-urea] | > 31.6 | 1.1 | > 100 | 21
CCNC(=O)Nc1ccc2ncc(-c3ccc(N)c(OC)c3)nc2n1 [Compound 154, 1-[3-(4-Amino-3-methoxy-phenyl)-pyrido[2,3-b]pyrazin-6-yl]-3-ethyl-urea] | 0.592 | 0.984 | > 31.6 | 2.8
